Measured values: publication PMC6426982, “Anti-alcohol abuse drug disulfiram inhibits human PHGDH via disruption of its active tetrameric form through a specific cysteine oxidation” (Scientific Reports, 2019)
Residue numbers refer to the chain shown, from its start. Read-outs that look alike come from different tables or passages of the source. Blank lines part the entries; values can stand above or below the molecule they belong to.

Key:
[1] = target: T1, human PHGDH (wild type) (Homo sapiens, UniProt O43175); experiment: PHGDH isolated enzyme inhibition assay (NADH fluorescence), wild type; format: biochemical
T1 construct: peptides including 12 out of the 13 Cys residues of the full length PHGDH could be identified and tracked; made in house; host or cells: Escherichia coli BL21
T1 sequence (O43175 1-533): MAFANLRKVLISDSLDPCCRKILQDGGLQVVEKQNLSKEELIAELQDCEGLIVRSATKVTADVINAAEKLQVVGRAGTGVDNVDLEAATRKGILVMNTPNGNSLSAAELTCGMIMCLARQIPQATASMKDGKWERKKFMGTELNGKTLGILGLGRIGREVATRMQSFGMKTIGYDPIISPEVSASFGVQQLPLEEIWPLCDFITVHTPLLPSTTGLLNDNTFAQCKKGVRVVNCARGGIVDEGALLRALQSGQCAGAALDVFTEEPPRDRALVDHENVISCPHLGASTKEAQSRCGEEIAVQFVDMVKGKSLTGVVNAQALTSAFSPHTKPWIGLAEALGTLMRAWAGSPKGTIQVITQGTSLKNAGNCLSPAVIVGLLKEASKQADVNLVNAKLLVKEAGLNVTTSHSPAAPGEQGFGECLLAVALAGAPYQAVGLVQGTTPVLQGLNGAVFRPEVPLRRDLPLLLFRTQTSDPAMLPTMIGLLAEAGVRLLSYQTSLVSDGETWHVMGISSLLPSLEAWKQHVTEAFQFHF
Procedure: Enzymatic assay was adapted from a previously described procedure. […] Assays were performed in PHGDH assay buffer (50 mM Tris, pH 8.5, and 1 mM EDTA). […] The final concentration of DMSO in the assay mixture was set to 5%.
pET28a human PHGDH and pET28a human C116S PHGDH were transformed into BL21 Escherichia coli. A single colony was grown to an OD600 0.6 in 1 L of Luria broth. Protein expression was induced with 1 mM isopropyl thiogalactopyranoside (IPTG). […] Pellets were resuspended in 60 mL of lysis buffer (50 mM Tris, pH 8.5, 10 mM MgCl2, 300 mM NaCl, 10% glycerol, 5 mM imidazole) and sonicated, and cell debris were pelleted by centrifugation (20,000 × g, 30 min). The supernatant was collected and purified using Akta purifier on HisTrap^TM FF column (GE Healthcare). […] Fraction protein content was measured via a Bradford assay. […] Protein purity was assessed via SDS/PAGE and Coomassie staining.

[2] = test system: UM-UC-3-PHGDH+ cells; experiment: Cell proliferation inhibition (Presto Blue), PHGDH-expressing cells; format: cell-based, human
Procedure: (§1) UM-UC-3 (PHGDH+ and PHGDH-) bladder cancer cells were purchased from the ATCC and cultured in DMEM medium supplemented with 10% heat-inactivated Fetal Bovine Serum (FBS) and 1% penicillin/streptomycin. Cells were seeded at 2500 cells/well in 96-well plates in serine depleted media (MEM). DSF or vehicle (DSMO) was added and cells were grown for 48 hours. Viability was assessed using Presto Blue reagent (Life Technologies) according to manufacturer’s instructions.

[3] = target: T2, PHGDH (Homo sapiens, UniProt O43175); experiment: Cross-linking experiment with BS3 (oligomeric state); conditions: DSF 1-500 µM, 30 min, BS3 cross-linker
T2 construct: peptides including 12 out of the 13 Cys residues of the full length PHGDH could be identified and tracked; made in house; host or cells: Escherichia coli BL21
T2 sequence (O43175 1-533): T1 sequence (O43175 1-533)
Procedure: PHGDH (3 μg) was incubated with DSF (1 µM, 5 µM, 10 µM, 50 μM, 100 μM, 250 µM, 500 μM) or vehicle control (DMSO) in 25 mM HEPES, pH 7.3, and 1 mM NAD^+ in 18 μL total volume for 30 min on ice. BS3 (S5799; Sigma) cross-linker dissolved in PBS was added to a final concentration of 5 mM and incubated for 30 min under shaking at room temperature. The reaction was then quenched for 15 min by adding 1 M Tris, pH 7.5, to a final concentration of 28 mM. Cross-linked proteins were mixed with sample buffer, boiled for 5 min, and run on SDS/PAGE. Gels were stained with Gelcode blue stain reagent (24592; Thermo) overnight and destained according to the manufacturer’s instructions.

[4] = target: T2, PHGDH; experiment: Incubation assay (time-dependent PHGDH inhibition); format: biochemical; conditions: DSF 50 µM, 45 min incubation, 37 °C, Fig. 1A; read-out: PHGDH inhibition after incubation
Procedure: (§2) Figure 1 Characterization of PHGDH inhibition by DSF. Residual activity percentage of PHGDH (A) upon incubation with DSF (50 µM) for the indicated times and (B) after the rapid dilution assay experiment with DSF (50 µM). All experiments values were performed in triplicates at each compound dilution and error bars show the standard deviation. Data were collected at 37 °C with a PHGDH concentration of 12 ng/µL in 50 mM Tris and 1 mM EDTA at pH 8.5.
(§3) Enzymatic assay was adapted from a previously described procedure. NADH fluorescence emission (Ex 340 nm/Em 460 nm) was followed over time. Assays were performed in PHGDH assay buffer (50 mM Tris, pH 8.5, and 1 mM EDTA). Substrates and enzyme concentrations were as follows: 3-PG, 240 μM; NAD^+, 120 μM; glutamate, 30 mM; PHGDH, 12 ng/μL; PSAT1, 20 ng/μL. The final concentration of DMSO in the assay mixture was set to 5%.

[5] = test system: UM-UC-3-PHGDH- cells; experiment: Cell proliferation inhibition (Presto Blue), cells not expressing PHGDH; format: cell-based; conditions: Homo sapiens, UMUC3, serine depleted media, 48 hours
Procedure: as §1

[6] = target: T3, PHGDH cysteine residues (Homo sapiens, UniProt O43175); experiment: nanoUHPLC/MS of tryptic PHGDH peptides after DSF treatment (cysteine modification)
T3 construct: peptides including 12 out of the 13 Cys residues of the full length PHGDH could be identified and tracked; made in house; host or cells: Escherichia coli BL21
T3 sequence (O43175 1-533): T1 sequence (O43175 1-533)
Procedure: To unambiguously confirm this hypothesis and possibly identify the cysteine residues involved in this interaction, mass spectrometry experiments were undertaken. Briefly, PHGDH was incubated for 30 min with various concentrations of disulfiram (0.1x IC50, 1x IC50 and 10x IC50). At the end of the incubation, chloroacetamide was added and incubated 15′ in large excess in order to block the remaining free cysteines residues for the following analysis. The protein was separated from the medium (removal of the remaining chloroacetamide and DSF by liquid/liquid extraction with CHCl3/H2O) followed by trypsinization and analysis of the peptides by nanoUHPLC/MS.
Mass spectrometry experiments were carried out on an Orbitrap Lumos, following a previously reported procedure, with some modifications. A local protein database containing the human PHGDH sequence (accession Uniprot O43175) was used to process the obtained MS/MS data. Mass error was set to 15 ppm for precursor ions and 0.6 Da for fragment ions. Oxidation on Met; disulfiram, (+147.025 Da) and carbamidomethyl (+57.021 Da) were considered as variable modifications on Cys.

[7] = target: T4, human PHGDH C116S mutant (Homo sapiens, UniProt O43175, C116S); experiment: PHGDH enzyme inhibition assay, C116S mutant; format: biochemical
T4 construct: peptides including 12 out of the 13 Cys residues of the full length PHGDH could be identified and tracked; made in house; host or cells: Escherichia coli BL21
T4 sequence (O43175 1-533 C116S): T1 sequence (O43175 1-533) with C116S
Procedure: as §3
pET28a human PHGDH and pET28a human C116S PHGDH were transformed into BL21 Escherichia coli. A single colony was grown to an OD600 0.6 in 1 L of Luria broth. Protein expression was induced with 1 mM isopropyl thiogalactopyranoside (IPTG). The culture was chilled on ice for 30 min, cultured for 18 h at room temperature and pelleted (6,000 g, 20 min). Pellets were resuspended in 60 mL of lysis buffer (50 mM Tris, pH 8.5, 10 mM MgCl2, 300 mM NaCl, 10% glycerol, 5 mM imidazole) and sonicated, and cell debris were pelleted by centrifugation (20,000 × g, 30 min). The supernatant was collected and purified using Akta purifier on HisTrap^TM FF column (GE Healthcare). […] Fraction protein content was measured via a Bradford assay. […] Protein purity was assessed via SDS/PAGE and Coomassie staining.

[8] = target: T1, human PHGDH (wild type); parameters: method as in PMID 28085281; conditions: drug screening campaign in the authors' lab; cited from earlier work
[9] = target: T2, PHGDH; experiment: Rapid dilution assay; format: biochemical; conditions: DSF 50 µM (Fig. 1B)
Procedure: as §2
Dilution experiment was conducted following a reported procedure. DSF (5 μM) or DMSO control was incubated with PHGDH for 45 min at 37 °C. Undiluted DSF (5 μM) was included as a positive control for inhibition.

[10] = cited from earlier work

IC50 ([1]; wild type PHGDH 12 ng/µL, 37 °C, pH 8.5, Fig. 2, read-out: PHGDH inhibition (IC50)): ~10000 nM | fold weaker IC50 compared to DSF ([1]; wtPHGDH): about 16 fold
Structure (SMILES): CCN(CC)C(=S)[S][Cu][S]C(=S)N(CC)CC [CuET, bis(diethyldithiocarbamate)–copper]

inhibition at 50 µM [4]: 100% | IC50 ([1]; Wild Type PHGDH, Table 2, read-out: PHGDH inhibition (IC50)): 590 nM | IC50 ([1]; purified PHGDH, triplicates, Table 1, read-out: PHGDH inhibition (IC50)): 590 nM | IC50 ([1]; with Triton X 0.01%, Fig. S1B, read-out: IC50 on PHGDH WT): 490 nM | IC50 ([1]; without Triton X, Fig. S1A, read-out: IC50 on PHGDH WT): 530 nM | Percentage of modified peptides, C111 ([6]; DSF 0.05 µM, peptide 91-119): 4.87% | Percentage of modified peptides, C116 ([6]; DSF 0.05 µM, peptide 91-119): 9.75% | Percentage of modified peptides, C111 ([6]; DSF 0.05 µM, peptide 92-119): 1.92% | Percentage of modified peptides, C116 ([6]; DSF 0.05 µM, peptide 92-119): 7.69% | Percentage of modified peptides, C116 ([6]; DSF 0.5 µM, peptide 91-119 (Ox M)): 7.14% | Percentage of modified peptides, C111 ([6]; DSF 0.5 µM, peptide 92-119): 6.67% | Percentage of modified peptides, C116 ([6]; DSF 0.5 µM, peptide 92-119): 46.67% | Percentage of modified peptides, C111 ([6]; DSF 5 µM, peptide 91-119): 4.16% | Percentage of modified peptides, C116 ([6]; DSF 5 µM, peptide 91-119): 50.00% | Percentage of modified peptides, C111 ([6]; DSF 5 µM, peptide 92-119): 10.34% | Percentage of modified peptides, C116 ([6]; DSF 5 µM, peptide 92-119): 39.65% | Percentage of modified peptides, C281 ([6]; DSF 5 µM, peptide 271-289): 1.26% | decrease in inhibitory potency on C116S mutant versus wild type enzyme [7]: 20 fold | IC50 ([7]; C116S mutant, Table 2): 10200 nM | PHGDH activity after rapid dilution of the enzyme/inhibitor complex [9]: not restored
Structure (SMILES): CCN(CC)C(=S)SSC(=S)N(CC)CC [DSF, bis(diethylthiocarbamoyl) disulfide]
IC50 ([2]; Homo sapiens, UMUC3, 48 h, UM-UC-3 +PHGDH, serine depleted media, 48 hours): 775 nM | difference in proliferation IC50 between PHGDH- and PHGDH+ cells ([2]; UM-UC-3-PHGDH- versus UM-UC-3-PHGDH+): ~ 5 fold | oligomeric state of PHGDH after DSF treatment [3]: concentration-dependent shift from the tetrameric to the dimeric, and to a lesser extent to the monomeric, form | IC50 [5]: 3640 nM | IC50 [8]: 590 nM | Cmax ([10]; reported, read-out: maximum plasma concentration (Cmax)): 1280 nM | elimination half-life ([10]; single-dose administration of 250 mg of DSF): 7.3 h
